Results: patent US12507721B2, “Ready-to-use parenteral nutrition formulation” (BAXTER INTERNATIONAL INC., priority 2021, dated 2025)
Marks after values point to notes of the source that are not given here.

Tests used:
Assay type in all cases: physicochemical
[1] = Vitamin B12 stability in 20% lipid emulsion during sterilization and storage; conditions: for T1M40° C. concentration: 1 month at 40° C.; for T6M40° C. concentration: 6 months at 40° C., sum of cyanocobalamin and hydroxocobalamin
Method: For testing the stability of vitamin B12 in formulation as they are typically used in parenteral nutrition, a 35% glucose solution, a 14.2% amino acid formulation such as found, for example, in Olimel N9E (Baxter), and a 20% lipid emulsion such as found in Clinoleic 20% (Baxter) were supplemented with different vitamin combinations which always included vitamin B12. KCl was added into the glucose solution to understand if it has an effect on the stability of vitamin B12. Vitamin B1 was introduced as thiamin HCl. Ascorbyl palmitate was added to the lipid emulsion formulation as a stabilizing agent due to its antioxidant properties. In addition, two separate micellar solutions (“Vit A” and “Vit B”, see Table 9) comprising certain vitamins to be assessed with regard to degradation (B3, B6, B8, B9, B12, C) but formulated with different excipients as micellization agents were tested for vitamin B12 stability. Vit A consisted of a solution of mixed micelles with ascorbyl palmitate as a potential stability enhancer. Vit B was formulated with a mix of polysorbates, PEG and sorbitol to form micelles. The micellar solutions were prepared by mixing, under high speed, a solution composed of glycocholic acid and lecithins dissolved in water. In case of Vit B, the glycocholic acid and lecithin were replaced by PEG and polysorbate. All formulations were provided in standard flexible containers and overpouched with an aluminum overpouch for subsequent sterilization. For an overview over formulations and conditions see Table 9.
All samples were submitted to two different sterilization technologies. Steam sterilization targeting a F0=8 min was used for large volumes (400/800 ml, Cycle 2) and for small volumes (25/50 ml, Cycle 1) as lined out in Table 9 above. The same samples were sterilized by water spray sterilization with a serial tower continuous sterilization equipment with two different exposure times (Cycles 3 (25 min.) and 4 (19 min.)).
The vitamin recovery was then compared between the different sterilization cycles and formulations to understand the impact of the formulation and the sterilization technology used on their respective short- and long-term stability. Therefore, after sterilization, the samples were stored at 40° C./25% RH for 6 months to evaluate the recovery of vitamin B12 at T1M, T3M and T6M. Besides, backup samples were stored at 5° C. Finally, some samples were also stored at 25° C./40% RH to provide for real time stability data.
Vitamin B12 was also considerably degraded in the lipid emulsion (Tables 12 through 15). […] The instability of vitamin B12 in the standard lipid emulsions is probably linked to the presence of ascorbyl palmitate, which is generally present as an antioxidant. It should thus be avoided in formulations according to the invention.

[2] = Vitamin B12 stability in mixed micelle solutions; conditions: both mixed micelle solutions (Vit A, Vit B); steam or water spray sterilization
Method: For testing the stability of vitamin B12 in formulation as they are typically used in parenteral nutrition, a 35% glucose solution, a 14.2% amino acid formulation such as found, for example, in Olimel N9E (Baxter), and a 20% lipid emulsion such as found in Clinoleic 20% (Baxter) were supplemented with different vitamin combinations which always included vitamin B12. KCl was added into the glucose solution to understand if it has an effect on the stability of vitamin B12. Vitamin B1 was introduced as thiamin HCl. Ascorbyl palmitate was added to the lipid emulsion formulation as a stabilizing agent due to its antioxidant properties. In addition, two separate micellar solutions (“Vit A” and “Vit B”, see Table 9) comprising certain vitamins to be assessed with regard to degradation (B3, B6, B8, B9, B12, C) but formulated with different excipients as micellization agents were tested for vitamin B12 stability. Vit A consisted of a solution of mixed micelles with ascorbyl palmitate as a potential stability enhancer. […]
Accordingly, mixed micelles solutions having smaller volumes (25 ml or 50 ml, see Table 9) were produced according to known methods. […] The mixed micelles solutions from Table 5 were then sterilized according to Cycles 1, 2, 3 and 4 as described before and the degradation of vitamin B12 during sterilization and subsequent storage was monitored as described before.

[3] = Vitamin B12 stability in dedicated formulations (Batches 1 to 4); conditions: aqueous formulation, optimized conditions (oxygen content, pH, sterilization method)
Method: Table 16 provides for the various batches which were prepared for testing the stability of vitamin B12 in each setting.
For Batches 1 to 3, concentrated emulsions (40%) were diluted with a factor of 8. The vitamin bulk was used to dilute the emulsion from 40% to 5%. The pH was adjusted at 5.9 with a citrate buffer for Batch 1 and a phosphate buffer for Batch 2. An adjustment to pH 6.5 was performed for Batch 3 with HCl. The final volume was provided by adding Milli-Q water. In case of Batches 2 and 3, EDTA and PVP K17 were added before filling up to the final volume. The emulsions were filtered with a 4.5 μm filter before filling. Flushing of the solutions using N2 was performed before starting the filling of each batch. The Batches were manufactured under exclusion of light and oxygen. The dissolved oxygen was measured at the beginning of the filling to ensure it remains <1.0 ppm. The headspace volume was set as small as possible (≤10 mL) and the filling volume limits was 100 mL per monobag, ±2 mL. To avoid any risk of vitamin degradation, an aluminum overpouch was used to protect each monobag. An oxygen absorber was placed between primary bag and overpouch. Seals were inspected before sterilization rack loading. Four samples per Batch were kept unsterilized for Batches 1 through 4. […]

[4] = Impact of pH on the stability of vitamin B12; conditions: 6 months at 40° C.

With cobalamin [Batch B12] the “Unsterilized T0 concentration” value ([1]; 20% lipid emulsion (Table 14)) was 0.014 mg/L, the “Unsterilized T0 concentration” value ([1]; 20% lipid emulsion (Table 15)) was 0.014 mg/L and the “Unsterilized T0 concentration” value ([1]; 20% lipid emulsion with ascorbyl palmitate (Table 12)) was 0.015 mg/L. For the same substance, the “T1M40° C. concentration” value ([1]; 20% lipid emulsion, Cycle 1 steam sterilization) was 0.004 mg/L, the “T3M40° C. concentration” value ([1]; 20% lipid emulsion, Cycle 1 steam sterilization, 3 months at 40° C.) was “<LOD” and the “T1M40° C. concentration” value ([1]; 20% lipid emulsion, Cycle 2 steam sterilization) was “<LOD”. For the same substance, the “Cycle 2 T0 concentration” value ([1]; 20% lipid emulsion, Cycle 2 steam sterilization, after sterilization) was 0.005 mg/L, the “T6M40° C. concentration” value ([1]; 20% lipid emulsion, Cycle 3 water spray sterilization (Table 14)) was 0.0037* mg/L and the “Cycle 3 T0 concentration” value ([1]; 20% lipid emulsion, Cycle 3 water spray sterilization (Table 14), after sterilization) was 0.005 mg/L. The “T6M40° C. concentration” value ([1]; 20% lipid emulsion, water spray sterilization (Table 15, head: Cycle 3)) was 0.0055* mg/L, the “Cycle 3 T0 concentration” value ([1]; 20% lipid emulsion, water spray sterilization with serial tower continuous sterilization equipment (Table 15, head: Cycle 3), after sterilization) was 0.006 mg/L and the “degradation after sterilization and subsequent storage” value [2] was “almost complete degradation”. For the same substance, the “stability of vitamin B12 in Batch 4” value [3] was “remains stable up to T7M40 °C”, the “vitamin B12 (cyanocobalamin plus hydroxocobalamin) recovered” value ([4]; Batch 1: 5% olive oil emulsion, pH 7.0, C0=40 min) was 53.8% and the “vitamin B12 (cyanocobalamin plus hydroxocobalamin) recovered” value ([4]; Batch 2: 5% olive oil emulsion, pH 5.9, C0=80 min) was 138%.
